Measurements from US8461328B2, “Tricyclic heterocyclic compounds, compositions and methods of use thereof” (Genentech, Inc., priority 2010, dated 2013).

Assays:
Type in all cases: biochemical
JAK1 = target: T1, JAK1 (Homo sapiens, UniProt P23458); experiment: JAK1 inhibition (Table 4); settings: read-out: JAK1 Ki
T1 construct: made in house; host or cells: SF9 insect cells (baculovirus)

JAK2 = target: T2, JAK2 (Homo sapiens, UniProt O60674); experiment: JAK2 inhibition (Table 4); settings: read-out: JAK2 Ki
T2 construct: made in house; host or cells: SF9 insect cells (baculovirus)

JAK3 = target: T3, JAK3 (Homo sapiens, UniProt P52333); experiment: JAK3 inhibition (Table 4); settings: read-out: JAK3 Ki
T3 construct: made in house; host or cells: SF9 insect cells (baculovirus)

TYK2 = target: T4, TYK2 (Homo sapiens, UniProt P29597); experiment: TYK2 inhibition (Table 4)
T4 construct: made in house; host or cells: SF9 insect cells (baculovirus)
T4 sequence (P29597 873-1187): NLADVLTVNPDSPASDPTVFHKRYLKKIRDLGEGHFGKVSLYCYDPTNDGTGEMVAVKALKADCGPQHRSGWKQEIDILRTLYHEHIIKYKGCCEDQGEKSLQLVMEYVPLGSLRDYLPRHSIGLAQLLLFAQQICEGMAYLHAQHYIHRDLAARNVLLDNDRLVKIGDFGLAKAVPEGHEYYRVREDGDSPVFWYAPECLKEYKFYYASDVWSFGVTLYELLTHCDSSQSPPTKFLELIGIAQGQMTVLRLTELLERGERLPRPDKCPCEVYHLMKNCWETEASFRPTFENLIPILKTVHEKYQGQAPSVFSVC

T3 sequence (P52333 783-1124): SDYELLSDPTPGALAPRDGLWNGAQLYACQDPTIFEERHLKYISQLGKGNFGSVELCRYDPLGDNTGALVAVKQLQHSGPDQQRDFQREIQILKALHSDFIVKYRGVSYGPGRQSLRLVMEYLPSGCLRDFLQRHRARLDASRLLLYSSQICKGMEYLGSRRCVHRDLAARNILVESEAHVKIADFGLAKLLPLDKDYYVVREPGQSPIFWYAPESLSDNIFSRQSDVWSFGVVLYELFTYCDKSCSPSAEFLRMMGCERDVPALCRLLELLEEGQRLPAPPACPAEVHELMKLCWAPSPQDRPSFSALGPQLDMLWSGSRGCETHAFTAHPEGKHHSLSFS
T2 sequence (O60674 812-1132): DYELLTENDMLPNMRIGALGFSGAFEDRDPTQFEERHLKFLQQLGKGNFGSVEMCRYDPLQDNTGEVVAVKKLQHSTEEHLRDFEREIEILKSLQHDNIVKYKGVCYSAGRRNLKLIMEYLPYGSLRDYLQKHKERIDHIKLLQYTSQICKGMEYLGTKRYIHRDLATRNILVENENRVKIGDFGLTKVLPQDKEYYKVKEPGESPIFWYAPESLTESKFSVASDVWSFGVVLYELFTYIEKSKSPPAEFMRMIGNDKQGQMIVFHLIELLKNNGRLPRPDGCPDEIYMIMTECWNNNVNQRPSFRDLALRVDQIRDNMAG
T1 sequence (P23458 852-1154): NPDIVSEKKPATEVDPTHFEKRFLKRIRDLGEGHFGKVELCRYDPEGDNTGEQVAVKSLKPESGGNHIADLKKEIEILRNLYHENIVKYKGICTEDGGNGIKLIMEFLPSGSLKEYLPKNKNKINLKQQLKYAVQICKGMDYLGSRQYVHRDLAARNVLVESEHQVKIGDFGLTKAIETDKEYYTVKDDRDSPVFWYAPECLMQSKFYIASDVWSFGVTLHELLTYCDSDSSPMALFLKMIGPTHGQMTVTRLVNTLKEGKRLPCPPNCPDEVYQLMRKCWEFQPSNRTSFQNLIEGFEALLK

SMILES	Ki (JAK1) [nM]	Ki (JAK2) [nM]	Ki (JAK3) [nM]	Ki (TYK2) [nM]
O[C@@H]1CC[C@@H](n2cnc3cnc4[nH]ccc4c32)C1 [Example 711, (1R,3R)-3-(6H-1,2,3,5,6-Tetraaza-as-indacen-1-yl)-cyclopentanol]	14.1	36.9	15.8	70.3
O[C@H]1CC[C@H](n2cnc3cnc4[nH]ccc4c32)C1 [Example 712, (1S,3S)-3-(6H-1,2,3,5,6-Tetraaza-as-indacen-1-yl)-cyclopentanol]	15.3	44.9	29.7	114
C[C@]1(O)CC[C@H](n2nnc3cnc4[nH]ccc4c32)CC1 [Example 713, Trans-1-Methyl-4-(6H-1,2,3,5,6-pentaaza-as-indacen-1-yl)-cyclohexanol]	8.14	15	202	62.7
C[C@]1(O)CC[C@@H](n2nnc3cnc4[nH]ccc4c32)CC1 [Example 714, Cis-1-Methyl-4-(6H-1,2,3,5,6-pentaaza-as-indacen-1-yl)-cyclohexanol]	5.29	9.89	105	28.6
OC[C@]1(O)CC[C@H](n2nnc3cnc4[nH]ccc4c32)CC1 [Example 715, Trans-1-Hydroxymethyl-4-(6H-1,2,3,5,6-pentaaza-as-indacen-1-yl)-cyclohexanol]	11.5	16.9	109	58.2
OC[C@]1(O)CC[C@@H](n2nnc3cnc4[nH]ccc4c32)CC1 [Example 716, Cis-1-Hydroxymethyl-4-(6H-1,2,3,5,6-pentaaza-as-indacen-1-yl)-cyclohexanol]	10.6	23.3	167	74.3
Cc1nc2cnc3[nH]ccc3c2n1[C@H]1CC[C@@H](NCC(F)(F)F)C1 [Example 719, [(1R,3S)-3-(2-Methyl-6H-1,3,5,6-tetraaza-as-indacen-1-yl)-cyclopentyl]-(2,2,2-trifluoro-ethyl)-amine]	4.07	23.2	22	30.4
Cc1nc2cnc3[nH]ccc3c2n1[C@@H]1CC[C@@H](NCC(F)(F)F)C1 [Example 720, [(1R,3R)-3-(2-Methyl-6H-1,3,5,6-tetraaza-as-indacen-1-yl)-cyclopentyl]-(2,2,2-trifluoro-ethyl)-amine]	6.6	18.3	88.1	54.5
Cc1nc2cnc3[nH]ccc3c2n1[C@H]1CC[C@@H](NCCC#N)C1 [Example 723, 3-[(1R,3S)-3-(2-Methyl-6H-1,3,5,6-tetraaza-as-indacen-1-yl)-cyclopentylamino]-propionitrile]	6.22	29.7	4.88	94.6
Cc1nc2cnc3[nH]ccc3c2n1[C@@H]1CC[C@@H](NCCC#N)C1 [Example 724, 3-[(1R,3R)-3-(2-Methyl-6H-1,3,5,6-tetraaza-as-indacen-1-yl)-cyclopentylamino]-propionitrile]	6.27	24.3	16	78.9
Cc1nc2cnc3[nH]ccc3c2n1[C@@H]1CC[C@@H](NC(C)CC#N)C1 (stereo partly drawn) [Example 725, 3-[(1R,3R)-3-(2-Methyl-6H-1,3,5,6-tetraaza-as-indacen-1-yl)-cyclopentylamino]-butyronitrile]	22.1	49.5	32.5	211
CC(C)(C)OC(=O)N[C@@H]1CC[C@@H](n2nnc3cnc4[nH]ccc4c32)C1 [Example 727, [(1R,3R)-3-(6H-1,2,3,5,6-Pentaaza-as-indacen-1-yl)-cyclopentyl]-carbamic acid tert-butyl ester]	1.76	7.73	74.4	143
Cc1nc2cnc3[nH]ccc3c2n1[C@H]1CC[C@@H](NC(=O)CC(F)(F)F)C1 [Example 731, 3,3,3-Trifluoro-N-[(1R,3S)-3-(2-methyl-6H-1,3,5,6-tetraaza-as-indacen-1-yl)-cyclopentyl]-propionamide]	0.58	5.54	9.13	12.4
COC(=O)N[C@@H]1CC[C@@H](n2c(C)nc3cnc4[nH]ccc4c32)C1 [Example 735, [(1R,3R)-3-(2-Methyl-6H-1,3,5,6-tetraaza-as-indacen-1-yl)-cyclopentyl]-carbamic acid methyl ester]	1.52	5.67	54.6	19.2
Cc1nc2cnc3[nH]ccc3c2n1C1(C)CCN(S(=O)(=O)c2cccnc2)CC1 [Example 740, 2-Methyl-1-[4-methyl-1-(pyridine-3-sulfonyl)-piperidinyl-4-yl]-1,6-dihydro-1,3,5,6-tetraaza-as-indacene]	21.7	97.7	404	296
Cc1nc2cnc3[nH]ccc3c2n1C1(C)CCN(C(=O)CC#N)CC1 [Example 741, 3-[4-Methyl-4-(2-methyl-6H-1,3,5,6-tetraaza-as-indacen-1-yl)-piperidin-1-yl]-3-oxo-propionitrile]	103	528	1130	568
C[C@@H](O)c1nc2cnc3[nH]ccc3c2n1C1CCC(CC#N)CC1 (stereo partly drawn) [Example 743, {4-[2-((R)-1-Hydroxy-ethyl)-6H-1,3,5,6-tetraaza-as-indacen-1-yl]cyclohexyl}acetonitrile]	0.59	3.68	14.1	1.23
O=C(NC1CCC(n2cnc3cnc4[nH]ccc4c32)CC1)OCc1cccnc1 (centres unmarked) [Example 744, [4-(6H-1,3,5,6-tetraaza-as-indacen-1-yl)-cyclohexyl]-carbamic acid pyridin-3-ylmethyl ester]	7.15	17.8	89.2	86
CN(CC(F)(F)F)C(=O)NC1CCC(n2cnc3cnc4[nH]ccc4c32)CC1 (centres unmarked) [Example 745, 1-methyl-3-[4-(6H-1,3,5,6-tetraaza-as-indacen-1-yl)-cyclohexyl]-1-(2,2,2-trifluoro-ethyl)-urea]	3.22	11.6	37.1	113
O=C(NC1CCC(n2cnc3cnc4[nH]ccc4c32)CC1)N1CCC1 (centres unmarked) [Example 746, azetidine-1-carboxylic acid [4-(6H-1,3,5,6-tetraaza-as-indacen-1-yl)-cyclohexyl]-amide]	13.1	21.3	183	75.4
CN(CC(F)F)C(=O)NC1CCC(n2cnc3cnc4[nH]ccc4c32)CC1 (centres unmarked) [Example 747, 1-(2,2-difluoro-ethyl)-1-methyl-3-[4-(6H-1,3,5,6-tetraaza-as-indacen-1-yl)-cyclohexyl]-urea]	4.22	11.7	52.5	72.7
Cc1nc2cnc3[nH]ccc3c2n1C1CCC(NC(=O)N2CC(F)(F)C2)CC1 (centres unmarked) [Example 748, 3,3-difluoro-azetidine-1-carboxylic acid [4-(2-methyl-6H-1,3,5,6-tetraaza-as-indacen-1-yl)-cyclohexyl]-amide]	10.7	36.6	150	444
Cc1nc2cnc3[nH]ccc3c2n1C1CCC(NC(=O)N(C)CC(F)(F)F)CC1 (centres unmarked) [Example 749, 1-methyl-3-[4-(2-methyl-6H 1,3,5,6-tetraaza-as-indacen-1-yl)-cyclohexyl]-1-(2,2,2-trifluoro-ethyl)-urea]	2.83	15.8	8.96	177
Cc1nc2cnc3[nH]ccc3c2n1C1CCC(NC(=O)N(C)CC(F)F)CC1 (centres unmarked) [Example 750, 1-(2,2-difluoro-ethyl)-1-methyl-3-[4-(2-methyl-6H-1,3,5,6-tetraaza-as-indacen-1-yl)-cyclohexyl]-urea]	4.74	22.1	17.6	130
CNC(=O)OC1CCC(n2c(C)nc3cnc4[nH]ccc4c32)CC1 (centres unmarked) [Example 751, methyl-carbamic acid 4-(2-methyl-6H-1,3,5,6-tetraaza-as-indacen-1-yl)-cyclohexyl ester]	7.83	27.9	79.4	83.9
CC1(n2cnc3cnc4[nH]ccc4c32)CCN(S(=O)(=O)c2cccnc2)CC1 [Example 753, 1-[4-Methyl-1-(pyridine-3-sulfonyl)-piperidin-4-yl]-1,6-dihydro-1,3,5,6-tetraaza-as-indacene]	18.4	76.1	296	289
CC1(n2cnc3cnc4[nH]ccc4c32)CCN(Cc2cccc(C#N)c2)CC1 [Example 754, 3-[4-Methyl-4-(6H-1,3,5,6-tetraaza-as-indacen-1-yl)-piperidin-1-ylmethyl]-benzonitrile]	40.4	286	961	2370
CC1(n2cnc3cnc4[nH]ccc4c32)CCN(Cc2cncs2)CC1 [Example 755, 1-(4-Methyl-1-thiazol-5-ylmethyl-piperidin-4-yl)-1,6-dihydro-1,3,5,6-tetraaza-as-indacene]	7.15	33.7	93.1	211
CC1(n2cnc3cnc4[nH]ccc4c32)CCN(Cc2ccnc(C#N)c2)CC1 [Example 756, 4-[4-Methyl-4-(6H-1,3,5,6-tetraaza-as-indacen-1-yl)-piperidin-1-ylmethyl]-pyridine-2-carbonitrile]	36.1	259	617	1120
